Structures can show the parent of a compound that is named as a salt.
Test: Crystalline form of atrasentan hydrochloride found in solvents over time (conversion to Form 2) at 25° C.
Type: physicochemical
Set-up: key: 1, 2 and 3 mean Atrasentan Hydrochloride Crystalline Forms 1, 2 and 3, respectively.; 1, 2 and 3 mean Atrasentan Hydrochloride Crystalline Forms 1, 2 and 3, respectively.; 1, 2 and 3 mean Atrasentan Hydrochloride Crystalline Forms 1, 2 and 3, respectively
Experimental: Examples of representative solvents that are useful for converting a particular crystalline form of atrasentan hydrochloride to Atrasentan Hydrochloride Crystalline Form 2 having substantial crystalline purity at 25° C. are shown in TABLE 2.

crystalline form present (0.1M HCl, week 1): 1 | crystalline form present (0.1M HCl, week 2): 1 | crystalline form present (0.1M HCl, week 4): 1 | crystalline form present (0.1M HCl, week 9): 2 | crystalline form present (0.1M HCl, week 16): 2 | crystalline form present (IPA (isopropyl alcohol), week 1): 1 | crystalline form present (IPA (isopropyl alcohol), week 2): 1 | crystalline form present (IPA (isopropyl alcohol), week 4): 2 | crystalline form present (IPA (isopropyl alcohol), week 9): 2 | crystalline form present (IPA (isopropyl alcohol), week 16): 2 | crystalline form present (PEG 400 (polyethylene glycol), week 1): 1 | crystalline form present (PEG 400 (polyethylene glycol), week 2): 1 | crystalline form present (PEG 400 (polyethylene glycol), week 4): 1 | crystalline form present (PEG 400 (polyethylene glycol), week 9): 1 | crystalline form present (PEG 400 (polyethylene glycol), week 16): 2 | crystalline form present (acetone, week 1): 2 | crystalline form present (acetone, week 2): 2 | crystalline form present (acetone, week 4): 2 | crystalline form present (acetone, week 9): 2 | crystalline form present (acetone, week 16): 2 | crystalline form present (ethanol, week 1): 2 | crystalline form present (ethanol, week 2): 2 | crystalline form present (ethanol, week 4): 2 | crystalline form present (ethanol, week 9): 2 | crystalline form present (ethanol, week 16): 2 | crystalline form present (ethyl acetate, week 1): 1 | crystalline form present (ethyl acetate, week 2): 1 | crystalline form present (ethyl acetate, week 4): 1 | crystalline form present (ethyl acetate, week 9): 2 | crystalline form present (ethyl acetate, week 16): 2 | crystalline form present (nitromethane, week 1): 3 | crystalline form present (nitromethane, week 2): 3 | crystalline form present (nitromethane, week 4): 3 | crystalline form present (nitromethane, week 9): 3 | crystalline form present (nitromethane, week 16): 2
SMILES: CCCCN(CCCC)C(=O)CN1C[C@H](c2ccc3c(c2)OCO3)[C@@H](C(=O)O)[C@@H]1c1ccc(OC)cc1 [atrasentan hydrochloride, (2R,3R,4S)-(+)-2-(4-methoxyphenyl)-4-(1,3-benzodioxol-5-yl)-1-(N,N-di(n-butyl)aminocarbonylmethyl)pyrrolidine-3-carboxylic acid]
